“Also recorded” adds a separate entry of the source.
Legend:
soybean [1] = experiment: Leaf transpiration experiment, soybean; assay type: in vivo; conditions: 20 μM spray 14 days after sowing, two days after spraying; FIG. 5
Method: ABA synthesis mutant aba2-1 was used in Arabidopsis leaf transpiration experiment. […] Therefore, this mutant is used to exclude the effect of endogenous ABA on the transpiration experiment. The plants were sprayed with a solution containing 0.05% tween-20 and corresponding concentrations of (+)-ABA/0224/0304/0706/0715/0428 or 0.05% Tween-20 and 0.05% DMSO (control) after three weeks of continuous watering with an amount of 1.2 ml/pot. Leaf transpiration experiments of soybeans were conducted at 26° C. with long-day lighting and soybeans were sprayed with a solution containing 0.1% tween-20 and 20 μM (+)-ABA/0224/0304 compound or 0.1% Tween-20 and 0.05% DMSO (control) 14 days after sowing with an amount of 4 ml/pot; the leaf transpiration experiments of cottons were sprayed with a solution containing 0.1% tween-20 and 20 μM (+)-ABA/0224 compound or 0.1% Tween-20 and 0.05% DMSO, respectively, 25 days after sowing with an amount of 4 ml/pot; the leaf transpiration experiments of wheats were sprayed with a solution containing 0.1% tween-20 and 100 μM (+)-ABA/0224 compound or 0.1% Tween-20 and 0.05% DMSO (control) 18 days after sowing with an amount of 6 ml/pot. Images were taken daily using the FLIR A655sc thermal imager at the same time before and after spraying.
In this experiment, the temperature change of leaf surface was observed and recorded by an infrared camera, thus reflecting the strength of plant transpiration. The stronger the transpiration, the lower the leaf temperature.

[2] = target: T1, PYL2 receptor-HAB1 protein phosphatase complex (Arabidopsis thaliana, UniProt O80992); experiment: AlphaScreen assay, PYL2 receptor binding to HAB1; assay type: biochemical; conditions: fraction of the EC50 of ABA; FIG. 2c, 2e-2g
T1 construct: made in house; host or cells: E. coli BL21 (DE3)
T1 sequence (O80992 14-188): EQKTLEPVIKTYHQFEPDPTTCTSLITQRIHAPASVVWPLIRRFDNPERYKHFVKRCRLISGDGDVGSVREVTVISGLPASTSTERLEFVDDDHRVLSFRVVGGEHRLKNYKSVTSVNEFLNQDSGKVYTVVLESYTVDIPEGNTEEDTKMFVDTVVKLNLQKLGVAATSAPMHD
T1 sequence (Q9CAJ0 172-511 partner limits assumed): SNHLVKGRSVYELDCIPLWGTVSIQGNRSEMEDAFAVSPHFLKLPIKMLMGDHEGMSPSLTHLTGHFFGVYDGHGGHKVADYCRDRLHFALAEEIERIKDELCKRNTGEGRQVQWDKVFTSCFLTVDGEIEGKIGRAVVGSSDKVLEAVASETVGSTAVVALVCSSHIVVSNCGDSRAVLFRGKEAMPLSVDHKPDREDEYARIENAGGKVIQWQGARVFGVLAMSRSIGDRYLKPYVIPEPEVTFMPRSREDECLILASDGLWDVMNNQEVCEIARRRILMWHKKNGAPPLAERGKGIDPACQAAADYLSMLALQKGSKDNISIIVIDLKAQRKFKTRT
Method: The AlphaScreen kit (available from Perkin Elmer) was used, and the method was as follows: a 10× buffer (50 mM MOPS, pH 7.4, 50 mM NaF, 50 mM CHAPS, 0.1 mg/ml bovine serum albumin) diluted at 1:10, each of 100 nM HAB1 with Biotin tag sequence and PYR1/PYL1/PYL2/PYL7/GmPYL6/OsPYL2 protein with dual tags of 6×His and SUMO sequences, corresponding concentrations of (+)-ABA/0224/0304/0706/0708/0713/0715/0428/NC0F4, and 5 μg/ml donor beads and acceptor beads (available from Perkin Elmer) were contained in 150 μl of experimental system. After incubating for 1.5 hours at room temperature in the dark, it was placed into an Envision Plate Reader (available from Perkin Elmer) under the programmed AlphaScreen procedure for readings.
AlphaScreen technology was used to test the ability of the compounds of the present invention to promote PYL receptor binding to PP2C protein phosphatase (HAB1).

soybean [3] = experiment: Soil drought experiment, soybean; assay type: in vivo
Method: Soybean, cotton and wheat for leaf transpiration experiments were used simultaneously for soil drought experiments, each pot was filled with the same weight of soil to reduce experimental error. All the soybean plants were subjected to a long-day culture at 26° C. 14 days after sowing, watering was stopped and the plants with the consistent growth condition were selected for drought treatment. At the start of the drought, a solution containing 0.1% Tween-20 and 20 μM (+)-ABA/0224/0304 or 0.1% Tween-20 and 0.05% DMSO (control) was sprayed onto the leaf surface once with a spray amount of 4 ml solution/pot. Meanwhile, the position of the pot was changed and re-watered 6 days after the drought, and the photos were taken 1 day after re-watering. The drought experiment of cotton was similar to that of soybeans, watering was stopped 25 days after sowing, the plants with the consistent growth condition were selected for drought treatment. At the start of the drought, a solution containing 0.1% Tween-20 and 20 μM (+)-ABA/0224 or 0.1% Tween-20 and 0.05% DMSO (control) was sprayed onto the leaf surface once with a spray amount of 4 ml solution/pot, and then sprayed once every 3 days. Meanwhile, the position of the pot was changed and re-watered 6 days after the drought, and the photos were taken before re-watering and 1 day after re-watering. In the drought experiment of wheat, the wheat with the consistent growth condition 16 days after sowing was selected for the drought treatment, at the start of the drought, a solution with 0.1% Tween-20 and 100 μM (+)-ABA/0224 or 0.1% Tween-20 and 0.05% DMSO (control) was sprayed once, and then sprayed once every 3 days with a spray amount of 4 ml/pot. Meanwhile, the position of the pot was changed and the photos were taken 6 days after the drought.
Soil drought experiments used for compound 0428 on soybean and maize were similar to that used for compound 0224 on soybeans, with only one plant contained in each pot. All soybean plants were long-day cultured at 26° C. […]

[4] = 20 μM sprayed once, re-watering after 6 days of drought, FIG. 8

Structure (SMILES) | leaf temperature versus DMSO control (leaf transpiration) (soybean [1]) | EC50 value with PYL2 receptor-HAB1 complex as fraction of that of ABA [2] | growth after drought and re-watering (soybean [3]; [4]) | growth after drought and re-watering (soybean [3]; 50 μM sprayed once a day for two days, 9 days of drought, FIG. 14a)
CC1=CC(=O)CC(C)(C)[C@@]1(O)/C=C/C(C)=C\C(=O)O [ABA, Abscisic Acid, reference compound] | had no difference from that in the control group |  |  | 
CCCN1C(=O)OC(C)c2cc(NS(=O)(=O)Cc3c(F)c(F)c(C)c(F)c3F)ccc21 (centres unmarked) [Compound 0224] | significantly reduce the transpiration rate of soybean leaf; also recorded: still significant higher than that of plants in DMSO-sprayed control group | 1/29 | significantly better than that of the control group (DMSO) or that of the soybean treated with same concentration of ABA; also recorded: significantly better growth after re-watering than that in the DMSO-sprayed control group and the plants sprayed with the same concentration of ABA | 
CCCN1C(=O)OC(C)(C)c2cc(NS(=O)(=O)Cc3c(F)c(F)c(C)c(F)c3F)ccc21 [Compound 0304] | significantly reduce the transpiration rate of soybean leaf; also recorded: still significant higher than that of plants in DMSO-sprayed control group | 1/15 | significantly better than that of the control group (DMSO) or that of the soybean treated with same concentration of ABA; also recorded: significantly better growth after re-watering than that in the DMSO-sprayed control group and the plants sprayed with the same concentration of ABA | 
CCCN1C(=O)OCc2cc(NS(=O)(=O)Cc3c(F)c(F)c(C)c(F)c3F)ccc21 [Compound 0428] |  | about ⅛ |  | significantly better growth after re-watering than that in the DMSO-sprayed control group
CCN1C(=O)OC(C)c2cc(NS(=O)(=O)Cc3c(F)c(F)c(C)c(F)c3F)ccc21 (centres unmarked) [Compound 0706] |  | ⅕-⅛ |  | 
Cc1c(F)c(F)c(CS(=O)(=O)Nc2ccc3c(c2)C(C)OC(=O)N3CCCF)c(F)c1F (centres unmarked) [Compound 0715] |  | ⅕-⅛ |  | 

Source: patent US11076597B2, “High stress resistant plant growth regulator and preparation method and use thereof” (SHANGHAI INSTITUTES FOR BIOLOGICAL SCIENCES, CHINESE …, priority 2015, dated 2021)
